Data: patent US9168247B2, “Beta carboline derivatives useful in the treatment of proliferative disorders” (FACULTES UNIVERSITAIRES NOTRE DAME DE LA PAIX, priority 2010, dated 2015)
Where two headings read alike, the source gives them in different places.

Tests used:
Hs683 glioma cells = assay: MTT test, overall cell growth, Hs683; type: cell-based, human
Experimental: (§1) MTT tests were performed in order to rapidly, i.e., within 5 days, measure the effect of the present compounds on the overall cell growth. The test measured the number of metabolically active living cells that were able to transform the yellow product 3-(4,5-dimethylthiazol-2-yl)-2,5-diphenyl tetrazolium bromide (herein referred as MTT) into the blue product formazan dye by mitochondrial reduction. The amount of formazan obtained at the end of the experiment, measured by means of a spectrophotometer, is directly proportional to the number of living cells. Optical density determination thus enabled a quantitative measurement of the effect of the investigated compounds as compared to the control condition (untreated cells) and/or to other reference compounds.
(§2) Five human cancer cell lines set forth in Table 3 were used in the MTT tests. These cancer cell lines cover two histological cancer types including glioma (Hs683, T98G, U373), and oesophageal (OE21, OE33) cancers. The U373 cell line is apoptosis-resistant but autophagy-sensitive.
(§3) To perform the assay, cells were allowed to grow in 96-well micro-wells with a flat bottom with an amount of 100 μl of cell suspension per well with 5,000 to 8,000 cells/well depending on the cell type used. Each cell line was seeded in its appropriate culture medium.
(§4) The detailed experimental procedure was as follows: after a 24-hour period of incubation at 37° C., the culture medium was replaced by 100 μl of fresh medium in which the tested compound was previously dissolved, at the following molar concentrations: 1×10^−8 M, 5×10^−8 M, 1×10^−7 M, 5×10^−7 M, 1×10^−6 M, 5×10^−6 M, 1×10^−5 M, 5×10^−5 M and 1×10^−4 M. Each experiment was performed in sestuplicate (6 times).
(§5) After 72 hours of incubation at 37° C. with (experimental conditions) or without (control condition) the compound to be tested, the medium was replaced by 100 μl MTT dissolved in RPMI (1640 without phenol red) at a concentration of 0.5 or 1 mg/ml. The micro-wells were subsequently incubated during 3 hours and a half at 37° C. and centrifuged at 1300 rpm during 10 minutes. MTT was removed and formazan crystals formed were dissolved in […]. The micro-wells were shaken for 5 minutes and read on a spectrophotometer at wavelengths of 570 nm (maximal formazan absorbance).
(§6) For each experimental condition, the mean optical density was calculated, allowing the determination of the percentage of remaining living cells in comparison to the control.
(§7) The origin of all the cell lines we used, along with their biological characteristics, and the validation procedures of the MTT colorimetric assay as employed here are fully detailed in Van Quaquebeke et al., 2005, J Med Chem 48:849-856; Ingrassia et al., 2009, J Med Chem 52:1100-1114; Mathieu et al., 2009, J Cell Mol Med, Feb. 20, 2009.

T98G glioma cells = assay: MTT test, overall cell growth, T98G; type: cell-based, human; settings: 72 hours of incubation
Experimental: as §1, §2, §3, §4, §5, §6, §7

[1] = tested on: OE33 oesophageal cancer cells; assay: MTT test, overall cell growth, OE33; type: cell-based, human
Experimental: as §1, §2, §3, §4, §5, §6, §7

[2] = tested on: OE21 oesophageal cancer cells; assay: MTT test, overall cell growth, OE21; type: cell-based, human
Experimental: as §1, §2, §3, §4, §5, §6, §7

U373 glioma cells = assay: MTT test, overall cell growth, U373; type: cell-based, human; settings: 72 hours of incubation
Experimental: as §1, §2, §3, §4, §5, §6, §7

U373 cells = assay: Cellular imaging (videomicroscopy) of cultured U373 cells: antiproliferative class and global growth ratio; type: cell-based, human; design: key to Anti proliferative class / anti-proliferative class-GGR: class I: actually cytostatic for 3 days (<10% of cell death at the 3rd day); class II: cyctostatic but becomes cytotoxic with <10% cell death on the 2nd day, and >20% of cell death on the 3rd day; class III: cytostatic but rapidly becomes cytotoxic with <10% cell death on the 1st day, >20% of cell death on the 2nd day and >50% of cell death on the 3rd day; class IV: cytotoxic (>50% of cell death on the first day); settings: for global growth ratio (GGR): GG treated cells/GG control cells, 72 h after drug addition, drug at its IC50 (MTT-test determined); for Anti proliferative class: cellular imaging of cultured U373 cells over three consecutive days
Excerpt: The effects of the di- and tri-substituted beta-carboline derivatives as described herein can also be determined on cell proliferation, migration and morphology by means of a cellular imaging approach (Debeir et al., Cytometry 60:29-40, 2004; Debeir et al., IEEE Trans Med Imaging 24:697-711, 2005) either in, e.g., the human U373-MG glioma cell line, which is apoptosis-resistant but autophagy-sensitive (Lefranc F et al., Neurosurgery 2008) or in, e.g., the human A549 non-small-cell-lung cancer cell line, which is apoptosis-resistant and autophagy-resistant (Mijatovic T et al., Neoplasia 2006, May; 8(5):402-12).
[…] The experiments are conducted in quadruplicates.
The behaviour of the cells, in terms of morphology, growth and death are thus investigated. The effect on the overall growth is measured by counting the number of cells on the first (0 h) and the last image (72 h) of each film. The global growth ratio (GGR) is then deduced by dividing the number of cells on the last image by the number of cells on the first image. The ratio GGRtreated cells/GGRcontrol cells is further calculated thereby providing a value that describes the effect of compounds of the present invention on the overall cell growth.
The methodology is fully described and validated in Debeir et al., 2008, Exp Cell Res 314:2985-2998 and Mathieu et al., 2009, J Cell Mol Med, Feb. 20, 2009.

[3] = tested on: human cancer cell lines (U373, T98G, Hs683, OE21, OE33); assay: MTT test, mean over the cancer cell lines; type: cell-based; settings: mean over the cancer cell lines, MTT test, read-out: IC50 Mean ± SEM
Experimental: as §1, §2, §3, §4, §5, §6, §7

[4] = Homo sapiens, Hs 683, 72 hours of incubation
[5] = Homo sapiens, OE33, 72 hours of incubation
[6] = Homo sapiens, OE21, 72 hours of incubation

| SMILES | IC50 (Hs683 glioma cells; [4]) | IC50 (T98G glioma cells; Homo sapiens, T98G) | IC50 [1, 5] | IC50 [2, 6] | IC50 (U373 glioma cells; Homo sapiens, U373 MG) | global growth ratio (GGR) (U373 cells) | Anti proliferative class (U373 cells) | IC50 ([3]; Homo sapiens) | IC50 (Hs683 glioma cells; 72 hours of incubation) | IC50 (T98G glioma cells) | IC50 ([1]; 72 hours of incubation) | IC50 ([2]; 72 hours of incubation) | IC50 (U373 glioma cells) | IC50 [3] |
| --- | --- | --- | --- | --- | --- | --- | --- | --- | --- | --- | --- | --- | --- | --- |
| Cc1c2c(cc[n+]1Cc1ccc(F)cc1)c1ccc(OCC3CCCCC3)cc1n2CC1CCCCC1.[Br-] [CV30, 1-methyl-2-(4-fluorobenzyl)-7-cyclohexylmethyloxy-9-cyclohexylmethyl-β-carbolin-2-ium bromide] | 3.1 ± 0.3 µM | 2 ± 0.6 µM | 1 ± 0.1 µM | 1.4 ± 0.2 µM | 0.04 ± 0.01 µM | 0.8 | I (class I: actually cytostatic for 3 days (<10% of cell death at the 3rd day)) | 1.6 ± 0.4 µM | – | – | – | – | – | – |
| CCCn1c2cc(OCc3ccccc3)ccc2c2ccnc(C)c21 [CV33, 1-methyl-7-benzyloxy-9-propyl-β-carboline] | 13 ± 1 µM | 34 ± 1 µM | 9 ± 1 µM | 23 ± 2 µM | 26 ± 1 µM | 0.3 | III | 21 ± 4 µM | – | – | – | – | – | – |
| CCCn1c2cc(OCc3ccccc3)ccc2c2cc[n+](Cc3ccccc3)c(C)c21.[Br-] [CV34, 1-methyl-2-benzyl-7-benzyloxy-9-propyl-β-carbolin-2-ium bromide] | 2.6 ± 0.2 µM | 1.7 ± 0.5 µM | 0.3 ± 0.05 µM | 0.57 ± 0.08 µM | 0.41 ± 0.03 µM | 0.3 | III | 1.1 ± 0.4 µM | – | – | – | – | – | – |
| CCCn1c2cc(OCc3ccccc3)ccc2c2cc[n+](Cc3ccccc3F)c(C)c21.[Br-] [CV35, 1-methyl-2-(2-fluorobenzyl)-7-benzyloxy-9-propyl-β-carbolin-2-ium bromide] | 0.45 ± 0.02 µM | 1.8 ± 0.3 µM | 0.25 ± 0.02 µM | 0.42 ± 0.02 µM | 0.39 ± 0.01 µM | 0.4 | I (class I: actually cytostatic for 3 days (<10% of cell death at the 3rd day)) | 0.7 ± 0.3 µM | – | – | – | – | – | – |
| CCCn1c2cc(OCc3ccccc3)ccc2c2cc[n+](Cc3ccc(F)cc3)c(C)c21.[Br-] [CV36, 1-methyl-2-(4-fluorobenzyl)-7-benzyloxy-9-propyl-β-carbolin-2-ium bromide] | 3.1 ± 0.6 µM | 5.7 ± 0.2 µM | 1 ± 0.1 µM | 1.9 ± 0.3 µM | 0.88 ± 0.06 µM | 0.1 | IV (class IV: cytotoxic (>50% of cell death on the first day)) | 2.5 ± 0.9 µM | – | – | – | – | – | – |
| Cc1nccc2c1[nH]c1cc(OCc3ccccc3)ccc12 [JR79, 1-methyl-7-benzyloxy-β-carboline] | 17 ± 2 µM | 17 ± 3 µM | 4.1 ± 0.6 µM | 21 ± 1 µM | 9.3 ± 0.2 µM | 0.2 | III | 14 ± 3 µM | – | – | – | – | – | – |
| Cc1c2[nH]c3cc(OCc4ccccc4)ccc3c2cc[n+]1Cc1ccccc1 [JR88] | – | – | – | – | – | 0.2 | II | – | 3.6 ± 0.1 µM | 5.6 ± 0.2 µM | 5.5 ± 0.3 µM | 6 ± 0.6 µM | 3.9 ± 0.2 µM | 5 ± 1 µM |
| Cc1nccc2c1[nH]c1cc(OCCCC(F)(F)F)ccc12 [JR110] | – | – | – | – | – | 0.2 | IV (class IV: cytotoxic (>50% of cell death on the first day)) | – | > 100 µM | 86 ± 11 µM | > 100 µM | > 100 µM | > 100 µM | > 97 µM |
| Cc1nccc2c1[nH]c1cc(OC(=O)c3ccccc3)ccc12 [JR140] | – | – | – | – | – | 0.2 | III | – | 53 ± 3 µM | 42 ± 3 µM | 31 ± 4 µM | 30 ± 4 µM | 27 ± 2 µM | 37 ± 5 µM |
| Cc1nccc2c1[nH]c1cc(OCc3cccc4ccccc34)ccc12 [JR147] | – | – | – | – | – | 0.2 | IV (class IV: cytotoxic (>50% of cell death on the first day)) | – | 19 ± 2 µM | 12 ± 2 µM | 8.2 ± 0.4 µM | 33 ± 8 µM | 7.4 ± 0.4 µM | 16 ± 5 µM |
| Cc1nccc2c1[nH]c1cc(OCCc3ccccc3)ccc12 [JR155] | – | – | – | – | – | 0.2 | IV (class IV: cytotoxic (>50% of cell death on the first day)) | – | 21 ± 3 µM | 21 ± 1 µM | 7.9 ± 0.3 µM | 14 ± 1 µM | 9.1 ± 0.6 µM | 15 ± 3 µM |
| Cc1nccc2c1[nH]c1cc(OCC3CCCCC3)ccc12 [JR167] | – | – | – | – | – | 0.1 | IV (class IV: cytotoxic (>50% of cell death on the first day)) | – | 22 ± 2 µM | 7.2 ± 0.2 µM | 8.1 ± 0.2 µM | 8.3 ± 0.2 µM | 7.48 ± 0.07 µM | 11 ± 3 µM |
| Cc1nccc2c1[nH]c1cc(OCc3ccccn3)ccc12 [JR169] | – | – | – | – | – | 0.4 | I (class I: actually cytostatic for 3 days (<10% of cell death at the 3rd day)) | – | 20 ± 1 µM | 20 ± 2 µM | 23 ± 3 µM | 16 ± 3 µM | 21.3 ± 0.8 µM | 20 ± 1 µM |
